In ChEMBL document CHEMBL1142351, “Synthesis and characterization of 8-ethynyl-1,3-dihydro-benzo[b][1,4]diazepin-2-one derivatives: part 2. New potent non-competitive metabotropic glutamate receptor 2/3 antagonists” (Bioorg Med Chem Lett, 2008) one finds IC50 and Activity data, which are given here for 20 compounds.

The term IC50 denotes the point on the concentration scale where inhibition reaches its midpoint.

The target in assay [1] is T1, Metabotropic glutamate receptor 2 (Rattus norvegicus, UniProt P31421). Nature of the assay: Displacement of [3H]LY354740 from rat recombinant mGluR2 expressed in CHO cells. The format is cell-based.
For assay [2], the target named is T1, Metabotropic glutamate receptor 2. The assay can be described thus: Antagonist activity at rat mGluR2 assessed as effect on (1S,3R)-ACPD-induced inhibition of forskolin-stimulated cAMP production. The format is functional. (Changes in cAMP serve as a functional read-out for many G protein-coupled receptors.)
Assay [3] deals with Metabotropic glutamate receptor 2 (Rattus norvegicus) (UniProt P31421). The assay can be described thus: Antagonist activity at rat mGluR2 transiently transfected in CHO cells expressing GIRKs assessed as inhibition of glutamate-induced reversible inward K+ current. The format is functional, cell-based.
For assay [4], the target named is Metabotropic glutamate receptor 3 (Rattus norvegicus) (UniProt P31422). Nature of the assay: Antagonist activity at rat mGluR3 transiently transfected in CHO cells expressing GIRKs assessed as inhibition of glutamate-induced reversible inward K+ current. Type of assay: functional, cell-based.
The target of assay [5] is Metabotropic glutamate receptor 8 (Rattus norvegicus, UniProt P70579). Nature of the assay: (§1) Displacement of [3H]-L-AP4 from rat mGluR8.
A short description of assay [6]: Binding affinity to NMDA.
Assay [7] can be described thus: Binding affinity to GABAA.
Assay [8] addresses T1, Metabotropic glutamate receptor 2. Nature of the assay: Displacement of [3H]LY354740 from rat mGluR2. A general note: Loss of bound radioactivity is the signal in a displacement assay; it reports binding, not function.
Assay [9] concerns the target Metabotropic glutamate receptor 8 (Rattus norvegicus) (UniProt P70579). The description is as §1.
The species entered for assay [10] is Rattus norvegicus. Nature of the assay: Antagonist activity at mGluR group 2 in rat hippocampus assessed as reversal of LY-354740-mediated inhibition of fEPSPs in dentate gyrus. The format is functional, tissue-based.
Assay [11] is filed under the species Rattus norvegicus. The assay can be described thus: Antagonist activity at mGluR group 2 in rat hippocampus assessed as blockade of LY-354740-mediated inhibition of fEPSPs after 3 hrs. Type of assay: functional, tissue-based.

Calls of active or inactive are those of the source. The rule behind the calls is not given here.

T1 sequence (P31421 whole entry): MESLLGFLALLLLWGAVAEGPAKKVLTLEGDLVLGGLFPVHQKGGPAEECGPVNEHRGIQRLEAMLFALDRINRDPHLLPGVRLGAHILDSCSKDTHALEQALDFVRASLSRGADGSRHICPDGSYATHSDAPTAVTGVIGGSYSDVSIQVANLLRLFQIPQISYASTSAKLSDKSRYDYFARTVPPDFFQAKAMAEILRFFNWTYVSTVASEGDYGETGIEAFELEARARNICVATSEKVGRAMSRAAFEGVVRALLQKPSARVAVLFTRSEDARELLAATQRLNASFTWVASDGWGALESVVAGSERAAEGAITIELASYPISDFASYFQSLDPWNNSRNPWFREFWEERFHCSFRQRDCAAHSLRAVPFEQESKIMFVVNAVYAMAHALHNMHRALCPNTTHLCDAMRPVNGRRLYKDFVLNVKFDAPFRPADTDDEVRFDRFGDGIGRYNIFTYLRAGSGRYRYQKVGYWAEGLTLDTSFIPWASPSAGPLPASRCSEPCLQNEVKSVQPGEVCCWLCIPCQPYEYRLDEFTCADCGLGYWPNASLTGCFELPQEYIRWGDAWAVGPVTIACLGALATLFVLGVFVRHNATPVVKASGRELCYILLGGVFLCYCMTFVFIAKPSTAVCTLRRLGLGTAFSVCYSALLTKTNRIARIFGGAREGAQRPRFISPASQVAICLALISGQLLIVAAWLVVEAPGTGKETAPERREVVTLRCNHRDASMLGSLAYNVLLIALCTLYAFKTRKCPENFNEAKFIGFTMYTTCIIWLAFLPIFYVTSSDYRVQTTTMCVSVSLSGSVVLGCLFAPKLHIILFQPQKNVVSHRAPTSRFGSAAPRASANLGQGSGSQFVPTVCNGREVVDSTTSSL
Metabotropic glutamate receptor 3 (Rattus norvegicus), sequence (P31422 23-879 limits assumed): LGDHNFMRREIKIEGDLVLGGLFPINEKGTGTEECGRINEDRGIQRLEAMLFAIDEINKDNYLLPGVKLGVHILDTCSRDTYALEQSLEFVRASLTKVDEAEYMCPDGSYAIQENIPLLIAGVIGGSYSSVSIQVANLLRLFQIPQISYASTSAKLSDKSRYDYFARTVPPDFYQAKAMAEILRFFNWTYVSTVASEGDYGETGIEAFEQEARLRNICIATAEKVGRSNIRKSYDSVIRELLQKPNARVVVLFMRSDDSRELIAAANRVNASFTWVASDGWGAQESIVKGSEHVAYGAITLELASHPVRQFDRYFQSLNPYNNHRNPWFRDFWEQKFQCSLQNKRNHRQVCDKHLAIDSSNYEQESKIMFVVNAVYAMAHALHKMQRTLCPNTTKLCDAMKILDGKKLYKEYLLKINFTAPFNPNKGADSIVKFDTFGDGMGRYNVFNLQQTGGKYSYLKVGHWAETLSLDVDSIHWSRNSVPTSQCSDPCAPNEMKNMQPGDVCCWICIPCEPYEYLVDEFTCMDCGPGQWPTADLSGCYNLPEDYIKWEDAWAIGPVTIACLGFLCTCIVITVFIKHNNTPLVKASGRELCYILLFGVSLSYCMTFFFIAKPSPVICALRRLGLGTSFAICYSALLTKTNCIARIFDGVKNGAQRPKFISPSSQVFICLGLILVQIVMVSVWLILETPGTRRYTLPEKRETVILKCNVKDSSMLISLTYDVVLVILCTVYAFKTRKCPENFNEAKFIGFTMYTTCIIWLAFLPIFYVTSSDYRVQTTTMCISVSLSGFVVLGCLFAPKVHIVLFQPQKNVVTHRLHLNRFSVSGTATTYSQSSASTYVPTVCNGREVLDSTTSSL
Metabotropic glutamate receptor 2 (Rattus norvegicus), sequence (P31421 19-872 limits assumed): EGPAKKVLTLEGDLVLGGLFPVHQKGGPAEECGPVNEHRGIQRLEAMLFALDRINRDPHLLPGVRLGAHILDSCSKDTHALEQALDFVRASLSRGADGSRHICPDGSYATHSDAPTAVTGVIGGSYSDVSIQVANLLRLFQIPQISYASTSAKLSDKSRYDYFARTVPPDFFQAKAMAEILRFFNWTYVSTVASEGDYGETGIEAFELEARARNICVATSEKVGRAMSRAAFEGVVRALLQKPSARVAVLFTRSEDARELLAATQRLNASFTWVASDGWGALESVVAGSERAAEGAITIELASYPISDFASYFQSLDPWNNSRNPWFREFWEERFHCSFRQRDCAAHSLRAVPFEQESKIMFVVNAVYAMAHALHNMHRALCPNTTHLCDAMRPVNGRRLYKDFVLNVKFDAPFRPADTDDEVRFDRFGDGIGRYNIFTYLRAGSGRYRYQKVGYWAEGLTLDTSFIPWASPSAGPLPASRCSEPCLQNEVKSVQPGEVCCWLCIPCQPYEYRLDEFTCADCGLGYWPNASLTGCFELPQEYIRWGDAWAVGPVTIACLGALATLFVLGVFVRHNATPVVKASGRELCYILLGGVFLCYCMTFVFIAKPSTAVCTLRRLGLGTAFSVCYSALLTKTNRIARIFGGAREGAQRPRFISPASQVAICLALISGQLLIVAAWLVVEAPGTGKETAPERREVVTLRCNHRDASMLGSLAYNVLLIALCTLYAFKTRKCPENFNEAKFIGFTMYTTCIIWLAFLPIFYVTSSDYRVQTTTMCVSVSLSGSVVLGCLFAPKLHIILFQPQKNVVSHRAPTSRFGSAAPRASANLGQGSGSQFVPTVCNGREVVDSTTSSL
Metabotropic glutamate receptor 8, sequence (P70579 whole entry): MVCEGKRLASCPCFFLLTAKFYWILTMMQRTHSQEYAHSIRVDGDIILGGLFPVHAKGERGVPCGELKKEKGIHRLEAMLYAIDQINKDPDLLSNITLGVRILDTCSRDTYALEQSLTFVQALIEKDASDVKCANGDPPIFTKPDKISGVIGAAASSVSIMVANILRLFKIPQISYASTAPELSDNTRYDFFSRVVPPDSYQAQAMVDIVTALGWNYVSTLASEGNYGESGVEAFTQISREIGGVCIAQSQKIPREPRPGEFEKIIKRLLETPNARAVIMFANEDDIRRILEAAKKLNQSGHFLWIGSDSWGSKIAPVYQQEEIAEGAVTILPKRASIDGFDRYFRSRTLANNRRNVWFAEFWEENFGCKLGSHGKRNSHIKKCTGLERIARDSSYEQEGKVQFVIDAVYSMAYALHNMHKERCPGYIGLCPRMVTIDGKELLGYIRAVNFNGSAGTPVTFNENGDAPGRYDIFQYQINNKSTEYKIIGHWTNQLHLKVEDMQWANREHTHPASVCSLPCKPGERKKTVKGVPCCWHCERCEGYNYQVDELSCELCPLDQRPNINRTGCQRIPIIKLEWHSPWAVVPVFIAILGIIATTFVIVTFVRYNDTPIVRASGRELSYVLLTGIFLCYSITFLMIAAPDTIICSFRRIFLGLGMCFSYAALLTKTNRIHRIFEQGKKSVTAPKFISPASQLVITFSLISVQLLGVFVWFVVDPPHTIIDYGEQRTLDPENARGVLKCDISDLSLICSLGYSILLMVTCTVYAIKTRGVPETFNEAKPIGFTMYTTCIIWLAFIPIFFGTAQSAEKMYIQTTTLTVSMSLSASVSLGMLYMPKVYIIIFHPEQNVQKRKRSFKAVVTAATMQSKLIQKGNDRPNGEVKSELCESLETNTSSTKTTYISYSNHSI
Metabotropic glutamate receptor 8 (Rattus norvegicus), sequence (P70579 whole entry): as above

For `O=C1CC(c2cccc(-n3ccnc3)c2)=Nc2ccc(C#Cc3ccccc3F)cc2N1`, the IC50 in assay [1] worked out at 20 nM; in assay [2], 16 nM.
Regarding `O=C1CC(c2cccc(-n3ccnn3)c2)=Nc2cc(O)c(C#Cc3ccc(F)cc3)cc2N1`, the values for the IC50 in assay [1], in assay [2] and in [5] were 20 nM, 17 nM and 5 µM, respectively. For the same compound, the result in [3] and in assay [4] was Active. Further, the result in [6] and in [7] was inactive.
Take `O=C1CC(c2cccc(-n3ccnc3)c2)=Nc2ccc(C#Cc3ccccc3)cc2N1`: the IC50 is 13 nM in assay [1] and 10 nM in [2].
Turning to `N#Cc1cccc(C2=Nc3ccc(C#Cc4ccccc4)cc3NC(=O)C2)c1`, the half-inhibitory concentration (IC50) in [2] is 17 nM.
Take `Cc1cn(-c2cccc(C3=Nc4ccc(C#Cc5ccccc5)cc4NC(=O)C3)c2)c(C)n1`: in assay [1], the IC50 stood at 170 nM.
On the same count and under the same terms, next, `Cc1cn(-c2cccc(C3=Nc4ccc(C#Cc5ccc(F)cc5)cc4NC(=O)C3)c2)cn1`: 98 nM; `O=C1CC(c2cccc(-n3cncn3)c2)=Nc2ccc(C#Cc3ccc(F)cc3)cc2N1`: 98 nM.
As to `O=C1CC(c2cccc(-n3nncc3CO)c2)=Nc2cc(O)c(C#Cc3ccc(F)cc3)cc2N1`, the IC50 in assay [1] is 378 nM.
On the same count and under the same terms, under `CN(C)c1cc2c(cc1C#Cc1ccccc1)NC(=O)CC(c1cccc(-n3ccnn3)c1)=N2` stands 36 nM.
For `O=C1CC(c2cccc(-n3ccnn3)c2)=Nc2ccc(C#Cc3ccc(F)cc3)cc2N1`, the IC50 in assay [1] was found to be 6 nM; in assay [2] it was 12 nM.
As to `O=C1CC(c2cccc(-n3ccnc3)c2)=Nc2ccc(C#Cc3ccc(F)cc3)cc2N1`, the IC50 in assay [1] and in assay [2] was 9 nM throughout.
`Cc1ccc2c(c1)NC(=O)CC(c1ccccc1)=N2`: in assay [8], the IC50 was found to be 6.4 µM.
As to `CN(CCO)c1cc2c(cc1C#Cc1ccc(F)cc1)NC(=O)CC(c1cccc(-n3ccnc3)c1)=N2`, the IC50 in assay [1] was found to be 140 nM.
For the compound `COCCOc1cc2c(cc1C#Cc1ccccc1)NC(=O)CC(c1cccc(-n3ccnc3)c1)=N2`, the figures for the IC50 in [1] and in [2] were 23 nM and 15 nM, respectively.
For the compound `O=C1CC(c2cccc(-n3ccnc3)c2)=Nc2cc(OCCO)c(C#Cc3ccc(F)cc3)cc2N1`, the IC50 in assay [1] was determined as 46 nM.
With `N#CCOc1cc2c(cc1C#Cc1ccccc1)NC(=O)CC(c1cccc(-n3ccnc3)c1)=N2`, the half-maximal inhibitory concentration (IC50) amounted to 18 nM in assay [1] and 13 nM in assay [2].
As to `O=C1CC(c2cccc(-n3ccnc3)c2)=Nc2cc(O)c(C#Cc3ccc(F)cc3)cc2N1`, the IC50 was 26 nM in assay [1] and 11 nM in assay [2]. For the same compound, the outcome (in [3]; in assay [4]; in the assay filed under Rattus norvegicus [10]; in the assay listed under Rattus norvegicus [11]) was Active. In addition, the outcome in assay [9], in assay [6] and in [7] was inactive.
For `O=C1CC(c2cccc(-n3cnnn3)c2)=Nc2ccc(C#Cc3ccc(F)cc3)cc2N1`, the IC50 in assay [1] was 72 nM.
The same measure, in the same setting: under `O=C1CC(c2cccc(-n3ccnc3)c2)=Nc2cc(OCCO)c(C#Cc3ccccc3)cc2N1` stands 64 nM; under `Cn1ccnc1-c1cccc(C2=Nc3ccc(C#Cc4ccccc4)cc3NC(=O)C2)c1`, 730 nM.
